In ChEMBL document CHEMBL5352469, “Solubility-driven optimization of benzothiopyranone salts leading to a preclinical candidate with improved pharmacokinetic properties and activity against Mycobacterium tuberculosis” (Eur J Med Chem, 2023):
Converted amounts (≈) assume the structure as drawn.

Legend:
[1] = AUC (0 to t) in Balb/c mouse at 50 mg/kg, po measured upto 24 hrs by LC/MS/MS analysis; type: ADME, organism-based; design: dose 50 mg/kg, time < 24 hrs, route po; details: in vivo
[2] = test system: Mycobacterium tuberculosis; test: Antibacterial activity against Mycobacterium tuberculosis H37Rv BALB/c mouse model assessed as reduction in CFU in lungs at 50 mg/kg via oral gavage for 30 days (reference value: 5.92 +/-0.29); type: functional; details: time 30 day
[3] = Elimination half life in Balb/c mouse at 5 mg/kg, iv measured upto 24 hrs by LC/MS/MS analysis; type: ADME, organism-based; details: in vivo, read-out: beta t1/2 (converted)
[4] = AUC (0 to infinity) in Sprague-Dawley rat at 5 mg/kg, iv measured upto 24 hrs by LC/MS/MS analysis; type: ADME, organism-based; design: time < 24 hrs, dose 5 mg/kg, route iv; details: in vivo
[5] = Tmax in Sprague-Dawley rat at 50 mg/kg, po measured upto 24 hrs by LC/MS/MS analysis; type: ADME, organism-based; details: in vivo
[6] = AUC (0 to t) in Sprague-Dawley rat at 5 mg/kg, iv measured upto 24 hrs by LC/MS/MS analysis; type: ADME, organism-based; design: time < 24 hrs, dose 5 mg/kg, route iv; details: in vivo
[7] = Elimination half life in Sprague-Dawley rat at 5 mg/kg, iv measured upto 24 hrs by LC/MS/MS analysis; type: ADME, organism-based; details: in vivo, read-out: beta t1/2 (converted)
[8] = Elimination half life in Sprague-Dawley rat at 50 mg/kg, po measured upto 24 hrs by LC/MS/MS analysis; type: ADME, organism-based; details: in vivo, read-out: beta t1/2 (converted)
[9] = Lipophilicity, log D of the compound in octanol/water at pH 2.0 incubated for 72 hrs under shaking condition by shake flask based HPLC-PDA method; type: physicochemical; details: pH 2, 72 h
[10] = AUC (0 to t) in Balb/c mouse at 5 mg/kg, iv measured upto 24 hrs by LC/MS/MS analysis; type: ADME, organism-based; design: time < 24 hrs, dose 5 mg/kg, route iv; details: in vivo
[11] = Lipophilicity, log D of the compound in octanol/water at pH 4.0 incubated for 72 hrs under shaking condition by shake flask based HPLC-PDA method; type: physicochemical; details: pH 4, 72 h
[12] = MRT (0 to infinity) in Sprague-Dawley rat at 50 mg/kg, po measured upto 24 hrs by LC/MS/MS analysis; type: ADME, organism-based; details: in vivo
[13] = MRT (0 to infinity) in Sprague-Dawley rat at 5 mg/kg, iv measured upto 24 hrs by LC/MS/MS analysis; type: ADME, organism-based; details: in vivo
[14] = Clearance in Sprague-Dawley rat at 5 mg/kg, iv measured upto 24 hrs by LC/MS/MS analysis; type: ADME, organism-based; details: in vivo
[15] = Lipophilicity, log D of the compound in octanol/water at pH 7.6 incubated for 72 hrs under shaking condition by shake flask based HPLC-PDA method; type: physicochemical; details: pH 7.6, 72 h
[16] = Cmax in Balb/c mouse at 5 mg/kg, iv measured upto 24 hrs by LC/MS/MS analysis; type: ADME, organism-based; design: dose 5 mg/kg, time < 24 hrs, route iv; details: in vivo
[17] = test system: Mycobacterium tuberculosis; test: Antibacterial activity against Mycobacterium tuberculosis H37Rv BALB/c mouse model assessed as reduction in delta CFU in lungs at 100 mg/kg via oral gavage for 30 days; type: functional; details: time 30 day
[18] = Lipophilicity, log P of the compound in octanol/water incubated for 72 hrs under shaking condition by shake flask based HPLC-PDA method; type: physicochemical; details: 72 h
[19] = test system: Mycobacterium tuberculosis; test: Antibacterial activity against Mycobacterium tuberculosis H37Rv BALB/c mouse model assessed as reduction in delta CFU in lungs at 25 mg/kg via oral gavage for 30 days; type: functional; details: time 30 day
[20] = test system: Mycobacterium tuberculosis; test: Antibacterial activity against Mycobacterium tuberculosis H37Rv BALB/c mouse model assessed as reduction in CFU in lungs at 25 mg/kg via oral gavage for 30 days (reference value: 5.92 +/-0.29); type: functional; details: time 30 day
[21] = AUC (0 to infinity) in Sprague-Dawley rat at 50 mg/kg, po measured upto 24 hrs by LC/MS/MS analysis; type: ADME, organism-based; design: time < 24 hrs, dose 50 mg/kg, route po; details: in vivo
[22] = Chemical stability of the compound under 4500 +/- 500 lx light condition by measuring compound purity incubated for 10 days by HPLC-PDA method relative to initial purity; type: physicochemical; details: 240 h; time 10 day
[23] = AUC (0 to t) in Sprague-Dawley rat at 50 mg/kg, po measured upto 24 hrs by LC/MS/MS analysis; type: ADME, organism-based; design: dose 50 mg/kg, time < 24 hrs, route po; details: in vivo
[24] = Tmax in Balb/c mouse at 50 mg/kg, po measured upto 24 hrs by LC/MS/MS analysis; type: ADME, organism-based; details: in vivo
[25] = Apparent permeability across basolateral to apical side in human Caco-2 cells incubated for 21 days; type: ADME, cell-based; details: time 21 day
[26] = Aqueous solubility of compound by HPLC-PDA method; type: physicochemical; details: buffer; read-out: solubility
[27] = Cmax in Sprague-Dawley rat at 5 mg/kg, iv measured upto 24 hrs by LC/MS/MS analysis; type: ADME, organism-based; design: time < 24 hrs, dose 5 mg/kg, route iv; details: in vivo
[28] = Oral bioavailability in Balb/c mouse at 50 mg/kg measured upto 24 hrs by LC/MS/MS analysis; type: ADME, organism-based; details: in vivo
[29] = Chemical stability of the compound under 60 degree C high temperature by measuring compound purity incubated for 10 days by HPLC-PDA method analysis relative to initial purity; type: physicochemical; details: 240 h; time 10 day
[30] = Chemical stability of the compound under 92.5% humidity by measuring compound purity incubated for 10 days by HPLC-PDA method relative to initial purity; type: physicochemical; details: 240 h; time 10 day
[31] = Oral bioavailability in Sprague-Dawley rat at 50 mg/kg measured upto 24 hrs by LC/MS/MS analysis; type: ADME, organism-based; details: in vivo
[32] = Elimination half life in Balb/c mouse at 50 mg/kg, po measured upto 24 hrs by LC/MS/MS analysis; type: ADME, organism-based; details: in vivo, read-out: beta t1/2 (converted)
[33] = Efflux ratio of apparent permeability across basolateral to apical side over apical to basolateral side in human Caco-2 cells; type: ADME, cell-based
[34] = Cmax in Sprague-Dawley rat at 50 mg/kg, po measured upto 24 hrs by LC/MS/MS analysis; type: ADME, organism-based; design: time < 24 hrs, dose 50 mg/kg, route po; details: in vivo
[35] = Apparent permeability across apical to basolateral side in human Caco-2 cells incubated for 21 days; type: ADME, cell-based; details: time 21 day
[36] = test system: Mycobacterium tuberculosis; test: Antibacterial activity against Mycobacterium tuberculosis H37Rv BALB/c mouse model assessed as reduction in CFU in lungs at 100 mg/kg via oral gavage for 30 days (reference value: 5.92 +/-0.29); type: functional; details: time 30 day
[37] = Cmax in Balb/c mouse at 50 mg/kg, po measured upto 24 hrs by LC/MS/MS analysis; type: ADME, organism-based; design: time < 24 hrs, dose 50 mg/kg, route po; details: in vivo
[38] = test system: Mycobacterium tuberculosis; test: Antibacterial activity against Mycobacterium tuberculosis H37Rv BALB/c mouse model assessed as reduction in delta CFU in lungs at 50 mg/kg via oral gavage for 30 days; type: functional; details: time 30 day
[39] = Lipophilicity, log D of the compound in octanol/water at pH 6.8 incubated for 72 hrs under shaking condition by shake flask based HPLC-PDA method; type: physicochemical; details: pH 6.8, 72 h

Question: Which results are given for `O=c1cc(N2CCN(CC3CCCCC3)CC2)sc2c([N+](=O)[O-])cc(C(F)(F)F)cc12`?
Answer: AUCt ([1]; 24 h): 1581 ng·h/mL; Activity [2]: 2.34 log10CFU; half-life [3]: 6.54 h; AUC(0-inf) [4]: 1580 ng·h/mL; Tmax [5]: 3.67 h; AUC(0-t) at 24 h [6]: 1540 ng·h/mL; half-life [7]: 8.27 h; half-life [8]: 3.83 h; logD [9]: 1.29; AUCt ([10]; 24 h): 4954 ng·h/mL; logD [11]: 3.72; MRT inf [12]: 5.94 h; MRT inf [13]: 2.99 h; clearance [14]: 53.8 mL/min/kg; logD [15]: > 4.32; Cmax [16]: 8240 ng/mL; Activity [17]: 3.73 log10CFU; logP [18]: 3.71; Activity [19]: 2.28 log10CFU; Activity [20]: 3.64 log10CFU; AUC(0-inf) [21]: 769 ng·h/mL; Stability [22]: 98.2%; AUC(0-t) at 24 h [23]: 741 ng·h/mL; Tmax [24]: 0.5 h; Papp B→A [25]: 0.69 ×10⁻⁶ cm/s; solubility [26]: 0.15 µg/mL (≈ 0.329 µM); Cmax [27]: 3560 ng/mL; F ([28]; po, 50 mg/kg, 24 h): 13.1%; Stability [29]: 100%; Stability [30]: 100%; bioavailability [31]: 4.87%; half-life [32]: 7.25 h; efflux ratio [33]: 0.1; Cmax [34]: 109 ng/mL; Papp A→B [35]: 11.8 ×10⁻⁶ cm/s; Activity [36]: 2.19 log10CFU; Cmax [37]: 588 ng/mL; Activity [38]: 3.58 log10CFU; logD [39]: > 4.3

Question: Which results are given for `O=C(O)CC(O)(CC(=O)O)C(=O)O.O=c1cc(N2CCN(CC3CCCCC3)CC2)sc2c([N+](=O)[O-])cc(C(F)(F)F)cc12`?
Answer: AUC(0-t) at 24 h ([1]; Balb/c): 4440 ng·h/mL; half-life [3]: 6.67 h; AUC(0-t) at 24 h ([10]; Balb/c): 2360 ng·h/mL; Cmax [16]: 3780 ng/mL; Stability [22]: 91.3%; Tmax [24]: 0.5 h; Papp B→A [25]: 0.33 ×10⁻⁶ cm/s; solubility [26]: 143 µg/mL; bioavailability ([28]; Balb/c): 19.4%; Stability [29]: 99.6%; Stability [30]: 99.4%; half-life [32]: 6.19 h; efflux ratio [33]: 0.13; Papp A→B [35]: 2.52 ×10⁻⁶ cm/s; Cmax [37]: 536 ng/mL
